From article PMC8344021, “Discovery of Small Molecule Bak Activator for Lung Cancer Therapy” (Theranostics, 2021)

What was measured:
[1] = tested on: NSCLC and SCLC cell lines; assay: Apoptotic cell death in panel of NSCLC and SCLC cell lines; assay type: cell-based, human; details: 1μM
Experimental: Figure 1 Discovery of small molecule BKA-073 as a lead compound that targets BH3 domain of Bak and induces mitochondrial priming and apoptosis in lung cancer cells. (A) Schematic illustration of screening strategies used to identify the lead Bak agonist BKA-073 and its chemical structure. (B) Structural modeling of BKA-073 in the BH3 domain binding pocket of Bak protein. (C) Expression levels of Bak were analyzed by Western blot in NSCLC and SCLC cell lines. (D-E) A panel of NSCLC and SCLC cell lines were treated with BKA-073 (1μM) for 16h or 72h, followed by analysis of dynamic BH3 profiling (D) or apoptotic cell death (E), respectively. Data represent the mean ± SD, n = 3 per group. **P < 0.01, ***P < 0.001, by 2-tailed t test. TEXT PRINTED IN THE PICTURE: (A) BKA-073: MW: 361.87 […]
Supplemental Materials and Methods
Small molecule NSC14073 (BKA-073) was obtained from the Drug Synthesis and Chemistry Branch, Developmental Therapeutic Program, Division of Cancer Treatment and Diagnosis, National Cancer Institute (NCI, Bethesda, MD) (http://dtp.nci.nih.gov/RequestCompounds).
Venetoclax (ABT-199, 205807) was purchased from MedKoo Biosciences (Morrisville, NC).
Antibodies including PARP (sc-8007), Bax (sc-7480), Mcl-1 (sc-12756), cytochrome c (sc-13156) and actin (sc-47778) were purchased from Santa Cruz (Santa Cruz, CA). Bcl2 antibody (05-826) was obtained from Calbiochem (Darmstadt, Germany). Bcl-XL (ab32370), Bak (ab32371) and Bax (ab104156) antibodies were purchased from Abcam (Cambridge, MA). […]
Cells were seeded at a density of 5 × 103 per well in 96-well plates and allowed to grow overnight. After treatment with BKA-073, the surviving cell fraction was determined using the sulforhodamine B (SRB) assay as described. Optical density (OD) was measured at 510nm in a microplate reader (Synergy H1, BioTek®, Winooski, VT). […]
Apoptotic cells were detected using Annexin-V Apoptosis Detection Kit (556547, BD Biosciences, San Jose, CA) according to the manufacturer’s instructions. […]

[2] = tested on: Bak oligomerization in A549 cells; assay: Bak oligomerization by cross-linking with BMH; assay type: cell-based, human; details: 1μM, 24h, mitochondrial fraction, Western blot
Experimental: Bak oligomerization was analyzed as described. Briefly, 10 mM Bis (maleimido) hexane (BMH) was added to the mitochondrial fraction dissolved in conjugation buffer (PBS, pH7.2) and 5mM EDTA was added for crosslinking between sulfhydryl groups of Bak proteins. The reaction mixture was incubated for 1h at room temperature. The reaction was stopped by adding quench solution (1M DTT) for 15min at room temperature. The reaction product was subjected to SDS-PAGE gel and analyzed by Western blot using a Bak antibody.
A pivotal step in the apoptosis process is the oligomerization of Bak, [44]. To assess whether BKA-073 affects the ability of Bak to form oligomers in the mitochondrial membrane, a cross-linking study with Bis (maleimido) hexane (BMH) was carried out. […] These findings indicate that BKA-073 can activate Bak through its oligomerization in mitochondria. It is known that formation of Bak oligomers in mitochondria promotes cytochrome c (Cyt c) release to induce apoptosis, [46].

In the case of `COc1ccc2nc3ccccc3c(NCCNCC(C)O)c2c1` (stereo not shown) [BKA-073], the induction of apoptosis ([1]; 72h) is reported as “potently induced”, the “sensitivity (mitochondrial priming and apoptosis), lines with relatively higher Bak” value ([1]; A549, H157, H1975, DMS53, DMS114, H209, H526) is reported as “more sensitive” and the “sensitivity (mitochondrial priming and apoptosis), lines with relatively lower Bak” value ([1]; Calu-1, H69, H128, H146) is reported as “less sensitive”. For the same compound, the Bak oligomerization [2] was “facilitated the formation of Bak dimers and trimers”.
